# Measurements reported in patent publication US9801961B2, “2-phenylimidazo[1,2-a]pyrimidines as imaging agents” (Hoffmann-La Roche Inc., priority 2013, dated 2017).
# System: native tau aggregates
# Assay: TAU radioligand in vitro displacement assay ([3H]T808 autoradiography on human AD brain sections)
# Type: binding
# Conditions: compound 10 nM, radioligand [3H]T808 10 nM, 50 mM Tris pH 7.4, room temperature, 30 min
# Method: TAU Radioligand-In-Vitro Displacement Assay
# This in vitro binding assay assesses the affinity of compounds for native tau aggregates. The compounds are co-incubated with the well-established tau specific radioligand [^3H]T808 and the compound's displacement potency of [^3H]T808 binding is determined by in vitro autoradiography using human Alzheimer's disease (AD) brain sections (FIG. 1).
# AD human brains are purchased from Banner Sun Health Research Institute (Sun City, Ariz., USA). Pathological diagnosis of AD is made according to standard NIA-Reagan Institute criteria based on neuropathological data. The radioligand [^3H]T808 was synthesized in-house ([^3H]-2-[4-(2-Fluoro-ethyl)-piperidin-1-yl]-benzo[4,5]imidazo[1,2-a]pyrimidine, radiochemical purity 99.0%). As a reference cold T808 is used (2-[4-(2-Fluoro-ethyl)-piperidin-1-yl]-benzo[4,5]imidazo[1,2-a]pyrimidine). For the autoradiography FujiFilm Imaging Plates (BAS-IP TR 2025) are exposed to the sections and read with a FujiFilm IP reader (BAS-5000).
# Ten μm thick human AD brain sections are generated with a cryostat (Leica CM3050) at −17° C. chamber temperature and −15° C. object temperature. Sections are transferred to Histobond+microscope slides (Marienfeld Laboratory Glasware). After drying for 3 hours at room temperature the sections are stored at −20° C. The sections are incubated with the radioligand (10 nM) and the respective cold compound (at various concentrations) in 50 mM Tris buffer, pH 7.4 at room temperature for 30 min. After washing 3×10 min at 4° C. in 50 mM Tris buffer, pH 7.4 and 3 quick dips in H2O dist. at 4° C. the sections are dried at 4° C. for 3 h. The sections are placed in a FujiFilm Cassette (BAS 2025), exposed with an Imaging Plate for five days and afterwards scanned with a resolution of […].
# The signal intensity (Dens—PSL/mm2) in the region of interest (ROI) of the autoradiogram is quantified with the software MCID analysis (version 7.0, Imaging Research Inc.). The specific binding (SB) of [^3H]T808 binding in absence or in presence of a compound is calculated by subtracting the non-specific binding signal in the white matter, thus yielding SB[3H]T808 only and SBcompund. The % displacement by the various compounds is calculated as following: % displacement=100−(SBcompund/SB[3H]T808 only)*100.
# In each experiment cold T808 is used as a positive internal control. Co-incubation of equimolar amounts of hot and cold T808 is expected to reduce specific binding by approximately 50%.
row,SMILES,% displacement of [3H]T808 (10 nM) at 10 nM
1,"FCOc1cccc(-c2cn3ccc(N4CCCC4)nc3n2)c1 [Example 16, 2-[3-(Fluoromethoxy)phenyl]-7-pyrrolidin-1-ylimidazo[1,2-a]pyrimidine]",27%
2,"CN(C)c1ccn2cc(-c3ccccc3)nc2n1 [Example 18, N,N-Dimethyl-2-phenylimidazo[1,2-a]pyrimidin-7-amine]",35%
3,"COc1ccc(-c2cn3ccc(N(C)CCF)nc3n2)cc1 [Example 23, N-(2-Fluoroethyl)-2-(4-methoxyphenyl)-N-methylimidazo[1,2-a]pyrimidin-7-amine]",33%
4,"COc1ccc(-c2cn3ccc(N4CCOCC4)nc3n2)cc1 [Example 25, 4-[2-(4-Methoxyphenyl)imidazo[1,2-a]pyrimidin-7-yl]morpholine]",16%
5,"Cc1cccc(-c2cn3ccc(N4CCOCC4)nc3n2)c1 [Example 26, 4-[2-(3-Methylphenyl)imidazo[1,2-a]pyrimidin-7-yl]morpholine]",13%
6,"COc1ccc(-c2cn3ccc(N4CCOCC4)nc3n2)cc1OC [Example 27, 4-[2-(3,4-Dimethoxyphenyl)imidazo[1,2-a]pyrimidin-7-yl]morpholine]",17%
7,"Oc1ccc(-c2cn3ccc(N4CCCC4)nc3n2)cc1 [Example 28, 4-(7-Pyrrolidin-1-ylimidazo[1,2-a]pyrimidin-2-yl)phenol]",22%
8,"FCCOc1ccc(-c2cn3ccc(N4CCCC4)nc3n2)cc1 [Example 29, 2-[4-(2-Fluoroethoxy)phenyl]-7-pyrrolidin-1-ylimidazo[1,2-a]pyrimidine]",15%
9,"FCOc1ccc(-c2cn3ccc(N4CCCC4)nc3n2)cc1 [Example 30, 2-[4-(Fluoromethoxy)phenyl]-7-pyrrolidin-1-ylimidazo[1,2-a]pyrimidine]",9%
10,"CO[C@@H]1CCN(c2ccn3cc(-c4ccccc4)nc3n2)C1 [Example 31, 7-[(3R)-3-Methoxypyrrolidin-1-yl]-2-phenylimidazo[1,2-a]pyrimidine]",7%
11,"CO[C@H]1CCN(c2ccn3cc(-c4ccccc4)nc3n2)C1 [Example 32, 7-[(3S)-3-Methoxypyrrolidin-1-yl]-2-phenylimidazo[1,2-a]pyrimidine]",13%
12,"COc1ccc(-c2cn3ccc(N4CC[C@@H](F)C4)nc3n2)cc1 [Example 33, 7-[(3R)-3-Fluoropyrrolidin-1-yl]-2-(4-methoxyphenyl)imidazo[1,2-a]pyrimidine]",25%
13,"COc1ccc(-c2cn3ccc(N4CC[C@H](F)C4)nc3n2)cc1 [Example 34, 7-[(3 S)-3-Fluoropyrrolidin-1-yl]-2-(4-methoxyphenyl)imidazo[1,2-a]pyrimidine]",15%
14,"COc1cccc(-c2cn3ccc(N(C)C)nc3n2)c1 [Example 35, 2-(3-Methoxyphenyl)-N,N-dimethylimidazo[1,2-a]pyrimidin-7-amine]",34%
15,"COc1ccc(-c2cn3ccc(N(C)C)nc3n2)cc1 [Example 36, 2-(4-Methoxyphenyl)-N,N-dimethylimidazo[1,2-a]pyrimidin-7-amine]",47%
16,"CN(C)c1ccn2cc(-c3ccc4c(c3)OCO4)nc2n1 [Example 37, 2-(1,3-Benzodioxol-5-yl)-N,N-dimethylimidazo[1,2-a]pyrimidin-7-amine]",46%
17,"CN(C)c1ccn2cc(-c3ccc4c(c3)OCCO4)nc2n1 [Example 38, 2-(2,3-Dihydro-1,4-benzodioxin-6-yl)-N,N-dimethylimidazo[1,2-a]pyrimidin-7-amine]",37%
18,"Cc1ccc(-c2cn3ccc(N(C)C)nc3n2)cc1 [Example 39, N,N-Dimethyl-2-(4-methylphenyl)imidazo[1,2-a]pyrimidin-7-amine]",49%
19,"Cc1cccc(-c2cn3ccc(N(C)C)nc3n2)c1 [Example 40, N,N-Dimethyl-2-(3-methylphenyl)imidazo[1,2-a]pyrimidin-7-amine]",51%
20,"COc1cccc(-c2cn3ccc(N4CCOCC4)nc3n2)c1 [Example 41, 4-[2-(3-Methoxyphenyl)imidazo[1,2-a]pyrimidin-7-yl]morpholine]",16%
21,"Cc1ccc(-c2cn3ccc(N4CCOCC4)nc3n2)cc1 [Example 42, 4-[2-(4-Methylphenyl)imidazo[1,2-a]pyrimidin-7-yl]morpholine]",8%
22,"COc1ccc(-c2cn3ccc(N4CCCC4)nc3n2)cc1 [Example 43, 2-(4-Methoxyphenyl)-7-pyrrolidin-1-ylimidazo[1,2-a]pyrimidine]",29%
23,"Cc1ccc(-c2cn3ccc(N4CCCC4)nc3n2)cc1 [Example 44, 2-(4-Methylphenyl)-7-pyrrolidin-1-ylimidazo[1,2-a]pyrimidine]",28%
24,"CN(C)c1ccn2cc(-c3ccc(N4CCOCC4)cc3)nc2n1 [Example 45, N,N-Dimethyl-2-(4-morpholin-4-ylphenyl)imidazo[1,2-a]pyrimidin-7-amine]",29%

# Same assay, conditions: compound 1 uM, radioligand [3H]T808 10 nM, 50 mM Tris pH 7.4, room temperature, 30 min
row,SMILES,% displacement of [3H]T808 (10 nM) at 1 uM
1,"FCOc1cccc(-c2cn3ccc(N4CCCC4)nc3n2)c1 [Example 16, 2-[3-(Fluoromethoxy)phenyl]-7-pyrrolidin-1-ylimidazo[1,2-a]pyrimidine]",88%
2,"FCCOc1cccc(-c2cn3ccc(N4CCCC4)nc3n2)c1 [Example 17, 2-[3-(2-Fluoroethoxy)phenyl]-7-pyrrolidin-1-ylimidazo[1,2-a]pyrimidine]",76%
3,"CN(C)c1ccn2cc(-c3ccccc3)nc2n1 [Example 18, N,N-Dimethyl-2-phenylimidazo[1,2-a]pyrimidin-7-amine]",92%
4,"COc1ccc(-c2cn3ccc(N4CCN(CCF)CC4)nc3n2)cc1.Cl [Example 19, 7-[4-(2-Fluoroethyl)piperazin-1-yl]-2-(4-methoxyphenyl)imidazo[1,2-a]pyrimidine hydrochloride]",74%
5,"COc1cccc(-c2cn3ccc(N4CCN(CCF)CC4)nc3n2)c1.Cl [Example 20, 7-[4-(2-Fluoroethyl)piperazin-1-yl]-2-(3-methoxyphenyl)imidazo[1,2-a]pyrimidine hydrochloride]",51%
6,"CN(CCF)c1ccn2cc(-c3ccccc3)nc2n1 [Example 21, N-(2-Fluoroethyl)-N-methyl-2-phenylimidazo[1,2-a]pyrimidin-7-amine]",84%
7,"COc1cccc(-c2cn3ccc(N(C)CCF)nc3n2)c1 [Example 22, N-(2-Fluoroethyl)-2-(3-methoxyphenyl)-N-methylimidazo[1,2-a]pyrimidin-7-amine]",82%
8,"COc1ccc(-c2cn3ccc(N(C)CCF)nc3n2)cc1 [Example 23, N-(2-Fluoroethyl)-2-(4-methoxyphenyl)-N-methylimidazo[1,2-a]pyrimidin-7-amine]",92%
9,"Cl.FCCN1CCN(c2ccn3cc(-c4ccccc4)nc3n2)CC1 [Example 24, 7-[4-(2-Fluoroethyl)piperazin-1-yl]-2-phenylimidazo[1,2-a]pyrimidine hydrochloride]",64%
